Assay results: article PMC10065799, “High-throughput profiling of sequence recognition by tyrosine kinases and SH2 domains using bacterial peptide display” (eLife, 2023)
Each block holds one sequence with its values, some of them ahead of it.

Legend:
Assay in all cases: pTyr-Var library bacterial peptide display kinase screen (enrichment scores)
c-Abl kinase domain = biological target: T1, c-Abl kinase domain (Mus musculus, UniProt P00520); assay type: biochemical;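 further: log2 fold change in enrichment of variant over reference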
T1 sequence (P00520 242-493 limits assumed): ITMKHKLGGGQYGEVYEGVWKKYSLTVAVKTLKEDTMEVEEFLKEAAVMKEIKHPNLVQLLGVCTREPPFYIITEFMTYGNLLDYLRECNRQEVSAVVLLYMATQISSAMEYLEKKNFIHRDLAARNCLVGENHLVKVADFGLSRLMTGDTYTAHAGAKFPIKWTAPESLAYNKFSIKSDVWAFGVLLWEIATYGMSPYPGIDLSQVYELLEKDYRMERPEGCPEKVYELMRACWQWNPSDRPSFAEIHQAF

c-Src kinase domain = c-Src kinase domain (Homo sapiens, UniProt P12931); assay type: biochemical; conditions: sheet "Src";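 further: log2 fold change in enrichment of variant over reference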
Fer kinase domain = assay type: biochemical, mouse; conditions: sheet "Fer"
EPHB1 kinase domain = assay type: biochemical, human; conditions: for Screen: sheet EPHB1, effect of the variant peptide relative to its reference peptide in the pTyr-Var library screen (enrichment scores)
EPHB2 kinase domain = assay type: biochemical, human; conditions: sheet EPHB2; effect of variant peptide relative to its reference peptide in the pTyr-Var library screen (enrichment scores)
[1] = fig5-data2, sheet "Abl", Screen for the variant/reference peptide pair, pTyr-Var library
[2] = sheet "Abl", effect of variant peptide relative to its reference peptide in pTyr-Var library screen (enrichment)
[3] = effect of the variant peptide relative to its reference peptide in the pTyr-Var library screen
[4] = variant peptide versus its reference peptide in the pTyr-Var library screen
[5] = value of the variant peptide against its reference peptide in the pTyr-Var library screen with Fer
[6] = variant peptide relative to its reference peptide, pTyr-Var library screen enrichment

Sequence: FRRITYFNWRH [PDE6B_Y556_H557Y_YF]
- Screen (c-Abl kinase domain; [1]): 1.003

Sequence: EFQLPYFNTVP [BMPR1A_Y457_M460T_YF]
- Screen (c-Src kinase domain; [3]): -0.7468

Sequence: FSCLPYRRLAF [SLC52A2_Y305_G306R_YF]
- Screen (c-Src kinase domain; [4]): -1.493

Sequence: FTFNSYFMHWV [IGHV1-46_Y51_T49N_YF]
- Screen (Fer kinase domain; [5]): 1.775

Sequence: LDFNEYFRFLN [HPRT1_Y198_D201Y_YF]
- Screen (c-Src kinase domain; [3]): 2.939

Sequence: VWALTYCDLHK [KCNH2_Y827_R823W]
- Screen (EPHB1 kinase domain): 1.577

Sequence: ASENVYVNTAH [CTSC_Y150_I153T]
- Screen (c-Src kinase domain; [3]): -1.46
- Screen (Fer kinase domain; [5]): -2.892
- Screen (EPHB1 kinase domain): -1.518

Sequence: FVPSFYHAFSG [ACTN4_Y265_S262P_YF]
- Screen (c-Src kinase domain; [3]): -1.103
- Screen (EPHB1 kinase domain): -0.2788

Sequence: FVTSMYNEILI [TRPV1_Y310_M315I]
- Screen (Fer kinase domain; [6]): 0.9219

Sequence: EWCSPYGLTPR [GRIN3B_Y601_R598C]
- Screen (c-Src kinase domain; [3]): 1.62

Sequence: EGDGVYTLNNK [HP_Y125_E130K]
- Screen (c-Src kinase domain; [3]): 0.08373

Sequence: NAGDFYDLFGG [PTPN11_Y63_T59A_YF]
- Screen (c-Src kinase domain; [4]): 0.4386
- Screen (c-Abl kinase domain; [1]): -0.2092
- Screen (Fer kinase domain; [6]): 0.394

Sequence: MGSFNYLGFAW [SPTLC2_Y178_R183W_YF]
- Screen (variant relative to reference peptide, measured in the pTyr-Var library screen) (EPHB1 kinase domain; sheet "EPHB1", variant seq vs reference seq, bacterial peptide display enrichment): 1.333

Sequence: RGRSTYFWPSP [GAGE12J_Y9_R13S_YF]
- Screen (c-Abl kinase domain; [1]): 0.4744

Sequence: QPEDIYHQTWA [GBA_Y244_G241E]
- Screen (c-Src kinase domain; [3]): 0.7767
- Screen (Fer kinase domain; [5]): 1.354

Sequence: NQELIYEGQRL [TBK1_Y354_R357Q]
- Screen (c-Src kinase domain; [4]): -0.1995
- Screen (Fer kinase domain; [6]): 0.5191

Sequence: ESAAIYNPVIF [RHO_Y301_K296E_YF]
- Screen (c-Src kinase domain; [4]): 0.5635
- Screen (Fer kinase domain; [6]): 0.08101

Sequence: KCCCIYEKPRS [PPP1R11_Y64_A69S]
- Screen (c-Src kinase domain; [4]): -0.2424
- Screen (c-Abl kinase domain; [1]): 0.7147
- Screen (Fer kinase domain; [5]): -0.1382

Sequence: PPSELYFVKVD [TERT_Y707_P704S]
- Screen (c-Src kinase domain; [4]): -0.06532

Sequence: LFSNAYLSDLA [ALDH1A1_Y119_N121S_YF]
- Screen (c-Src kinase domain; [3]): 1.319
- Screen (EPHB1 kinase domain): 1.358

Sequence: NTGVFYDLFGG [PTPN11_Y63_D61V_YF]
- Screen (c-Src kinase domain; [4]): 0.1029
- Screen (Fer kinase domain; [5]): 0.6171

Sequence: IGERTYGQVFK [CDK13_Y716_G714R_YF]
- Screen (c-Src kinase domain; [3]): -0.5578

Sequence: IRSGIYFKPES [L2HGDH_Y102_H98R_YF]
- Screen (c-Src kinase domain; [3]): -1.512

Sequence: RPAFTYATLIR [FOXP3_Y342_P339A]
- Screen (c-Src kinase domain; [3]): 1.034
- Screen (c-Abl kinase domain; [1]): 1.493
- Screen (EPHB1 kinase domain): -0.4742

Sequence: RPPFTYATLIH [FOXP3_Y342_R347H]
- Screen (c-Src kinase domain; [3]): 0.0554
- Screen (EPHB1 kinase domain): 0.127

Sequence: RVLHNYLVWCV [ECEL1_Y400_R404C]
- Screen (EPHB1 kinase domain): -0.3702

Sequence: ASPKSYPSQKH [CAP2_Y316_T311A]
- Screen (c-Abl kinase domain; [1]): 0.389

Sequence: QMVGKYASSFM [AVPR2_Y124_M123K_YF]
- Screen (c-Src kinase domain; [3]): -1.364

Other lines, results leading:

- Screen (c-Abl kinase domain; [2]): -0.3891
Sequence: KDHPDYKFQRR [SOX10_Y171_P175R_YF]

- Screen (c-Abl kinase domain; [1]): 0.133
Sequence: LEIETYPRLLD [KRT12_Y429_R430P]

- Screen (c-Abl kinase domain; [1]): -1.469
Sequence: REGAKYVSHCA [ASS1_Y113_G117C]

- Screen (c-Abl kinase domain; [2]): -2.912
Sequence: CVAARYMDMKG [WFIKKN2_Y93_V96M]

- Screen (c-Abl kinase domain; [2]): -1.428
Sequence: KPGVNYFFQVS [TTN_Y28165_R28168Q_YF]

- Screen (c-Abl kinase domain; [1]): -0.5363
Sequence: EFITRYIDSLK [PSMA7_Y110_A112D_YF]

- Screen (EPHB1 kinase domain): 3.773
- Screen (EPHB2 kinase domain): 2.804
Sequence: NNHGNYIVLLG [ETFDH_Y172_R175L]

- Screen (c-Abl kinase domain; [1]): -0.1285
Sequence: KRIETYFSKNF [PLP1_Y50_L46R_YF]

- Screen (Fer kinase domain; [5]): -0.5143
Sequence: FPSLPYSPVSS [CAMKK2_Y128_C123Y_YF]

- Screen (EPHB1 kinase domain): 1.011
Sequence: LKMLVYMDMSK [LRRC7_Y234_L235M]

- Screen (c-Abl kinase domain; [2]): -0.4882
Sequence: DKPENYRRLDI [VHL_Y175_V170D]

- Screen (EPHB1 kinase domain): 0.6281
Sequence: CPFNLYAAQLS [HGD_Y40_E42A_YF]

- Screen (c-Abl kinase domain; [1]): -1.245
Sequence: PRLMLYNPTTF [EGFR_Y270_P266R_YF]

- Screen (c-Abl kinase domain; [1]): -1.313
Sequence: IGGHAYGDQFR [IDH1_Y135_R132G_YF]

- Screen (EPHB1 kinase domain): 0.3113
Sequence: KFLENYFDLEK [MMP3_Y41_K45E_YF]

- Screen (c-Abl kinase domain; [1]): 0.7055
Sequence: RIDPDYMGRVR [IGSF9_Y81_V82M]

- Screen (c-Abl kinase domain; [2]): 0.1881
Sequence: LLKMMYLMLDN [STAT1_Y203_K201M]

- Screen (c-Abl kinase domain; [1]): -2.084
Sequence: DPEGAYTTRGG [EPHA3_Y779_A777G]

- Screen (c-Abl kinase domain; [1]): 2.373
Sequence: MLEVPYVDHNS [F10_Y384_R387H]

- Screen (c-Abl kinase domain; [1]): 0.6294
- Screen (EPHB2 kinase domain): 0.851
Sequence: PNAFIYVVQLP [L1CAM_Y420_A415P_YF]

- Screen (c-Abl kinase domain; [1]): -1.069
Sequence: ENKGVYVPMSG [IVD_Y277_L279P]

- Screen (c-Abl kinase domain; [2]): 1.264
Sequence: SVTFTYSPALN [TP53_Y126_C124Y_YF]

- Screen (c-Abl kinase domain; [2]): -1.788
Sequence: TENAGYFFQVS [TTN_Y31721_R31724Q_YF]
